≈ marks a conversion by molar mass, not a printed value. Where two headings read alike, the source gives them in different places.
How the values were obtained:
M. smegmatis = assay: MIC, M. smegmatis; type: cell-based, Mycobacterium smegmatis; settings: Mycolicibacterium smegmatis; read-out: MIC M. smegmatis
Description: (§1) Antimicrobial testing was carried out by the broth microdilution method in 96-well plate format following the Clinical and Laboratory Standards Institute (CLSI) guidelines and European Committee on Antimicrobial Susceptibility Testing (EUCAST) recommendations. Bacterial suspension of specific bacterial strain equivalent to 0.5 McFarland turbidity standard was diluted with cation-adjusted Mueller Hinton broth with TES (Thermo Fisher Diagnostic, Landsmeer, The Netherlands), to obtain a final inoculum of 10^5 CFU/mL. Compounds dissolved in DMSO and inoculum were mixed together and incubated for 18–20 h at 35 °C. Suspensions of Mycobacterium sp. were prepared into a tube of Middelbrook 7H9 broth supplemented with 5% OADC (Thermo Scientific, Trek Diagnostic Systems, West Sussex, UK) and incubated for at least 10 days. After incubation the minimal inhibitory concentration (MIC) values were determined by visual inspection as the lowest dilution of compounds showing no turbidity. Tetracycline was used as a positive control on every assay plate.

MRSA (QA-11.6) = assay: MIC broth microdilution, MRSA QA-11.6; type: cell-based, methicillin-resistant S. aureus; settings: Staphylococcus aureus, resistant to cefoxitin, gentamicin, sulfamethoxazole, tetracycline, read-out: MIC MRSA (QA-11.6)
Description: as §1

[1] = Equilibrium solubility at pH 6.8; settings: for solubility thermodynamic at 24 h: phosphate buffered saline, 37 °C, pH 6.8, aqueous buffer, thermodynamic from solid
Outline: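 Concentrations in solution were read by compound-specific isocratic HPLC calibrated with 30–90 mg/L external standards, after 5 min homogenization and 24 h shaking at 1200 RPM, 37 °C.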

E. coli (QA-11.7) = assay: MIC broth microdilution, E. coli QA-11.7; type: cell-based; settings: Escherichia coli, 20 h; multi-resistant isolate (ampicillin, azithromycin, cefotaxime, ertapenem, imipenem and others); read-out: MIC E. coli (QA-11.7)
Description: as §1

S. aureus (ATCC 29213) = assay: MIC broth microdilution, S. aureus ATCC 29213; type: cell-based; settings: Staphylococcus aureus, ATCC29213
Description: as §1

MRSA (QA-11.2) = assay: MIC broth microdilution, MRSA QA-11.2; type: cell-based, methicillin-resistant S. aureus; settings: Staphylococcus aureus, 20 h, resistant to cefoxitin, chloramphenicol, clindamycin, linezolid, tetracycline, thiamulin, trimethoprim, read-out: MIC MRSA (QA-11.2)
Description: as §1

MRSA = assay: MIC broth microdilution, MRSA; type: cell-based, methicillin-resistant S. aureus; settings: Staphylococcus aureus, read-out: MIC MRSA
Description: as §1

[2] = tested on: A. baumannii 8C6 (GES-14); assay: MIC broth microdilution, A. baumannii; type: cell-based; settings: Acinetobacter baumannii; read-out: MIC A. baumannii 8C6 (GES-14)
Description: as §1

[3] = tested on: C. jejuni RDK 135 (ATCC 33560); assay: MIC broth microdilution, C. jejuni; type: cell-based; settings: Campylobacter jejuni, ATCC33560; read-out: MIC C. jejuni RDK 135 (ATCC 33560)
Description: as §1

Human topoisomerase IIα = target: T1, Human topoisomerase IIα (Homo sapiens, UniProt P11388); assay: Human topoisomerase II Alpha Relaxation High Throughput Plate assay; type: biochemical; settings: 0.5 h; residual activity of the enzyme at compound concentration 10 μM, mean ± SD; read-out: Human Topo II (% RA)
T1 construct: purchased Inspiralis (Norwich, UK)
T1 sequence (P11388 whole entry): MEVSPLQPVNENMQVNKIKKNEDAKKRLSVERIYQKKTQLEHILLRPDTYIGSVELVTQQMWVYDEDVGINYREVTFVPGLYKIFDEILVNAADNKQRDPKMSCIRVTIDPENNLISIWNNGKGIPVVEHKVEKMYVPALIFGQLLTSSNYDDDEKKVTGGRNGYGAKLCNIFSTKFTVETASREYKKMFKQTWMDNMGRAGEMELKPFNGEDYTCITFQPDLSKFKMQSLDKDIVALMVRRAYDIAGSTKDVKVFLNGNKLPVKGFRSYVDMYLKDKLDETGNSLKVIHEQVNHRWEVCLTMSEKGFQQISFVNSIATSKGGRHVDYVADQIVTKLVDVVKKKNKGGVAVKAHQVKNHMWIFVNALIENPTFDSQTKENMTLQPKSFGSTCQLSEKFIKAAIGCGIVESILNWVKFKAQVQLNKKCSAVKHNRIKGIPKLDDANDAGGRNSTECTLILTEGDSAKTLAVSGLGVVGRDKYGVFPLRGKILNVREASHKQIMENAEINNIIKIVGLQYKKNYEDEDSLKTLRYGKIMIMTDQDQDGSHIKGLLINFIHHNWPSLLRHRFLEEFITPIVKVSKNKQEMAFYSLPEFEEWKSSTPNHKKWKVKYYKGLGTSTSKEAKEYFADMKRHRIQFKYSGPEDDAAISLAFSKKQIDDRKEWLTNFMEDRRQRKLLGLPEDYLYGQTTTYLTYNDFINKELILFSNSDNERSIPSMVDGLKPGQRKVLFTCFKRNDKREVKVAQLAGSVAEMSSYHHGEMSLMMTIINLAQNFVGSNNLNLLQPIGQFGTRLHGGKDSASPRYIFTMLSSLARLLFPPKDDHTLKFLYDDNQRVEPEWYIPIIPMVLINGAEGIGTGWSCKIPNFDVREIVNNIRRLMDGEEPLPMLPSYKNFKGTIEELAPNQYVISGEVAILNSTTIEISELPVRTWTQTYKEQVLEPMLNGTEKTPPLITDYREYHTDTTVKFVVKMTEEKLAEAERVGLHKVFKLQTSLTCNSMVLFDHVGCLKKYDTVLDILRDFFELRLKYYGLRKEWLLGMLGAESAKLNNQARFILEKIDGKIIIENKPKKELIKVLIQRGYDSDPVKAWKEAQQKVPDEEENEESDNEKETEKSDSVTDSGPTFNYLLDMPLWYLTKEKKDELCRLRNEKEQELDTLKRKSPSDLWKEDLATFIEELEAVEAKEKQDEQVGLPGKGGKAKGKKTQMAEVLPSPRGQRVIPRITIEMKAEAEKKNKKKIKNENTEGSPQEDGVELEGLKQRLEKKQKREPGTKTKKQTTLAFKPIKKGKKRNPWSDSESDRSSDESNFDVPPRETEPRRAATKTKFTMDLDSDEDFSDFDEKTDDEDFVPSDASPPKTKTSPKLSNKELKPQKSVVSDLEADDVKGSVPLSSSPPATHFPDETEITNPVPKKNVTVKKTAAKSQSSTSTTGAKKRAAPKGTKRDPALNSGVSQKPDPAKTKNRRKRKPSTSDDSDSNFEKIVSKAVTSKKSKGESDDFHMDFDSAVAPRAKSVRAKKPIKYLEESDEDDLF
Description: A Human topoisomerase II Alpha Relaxation High Throughput Plate assay kit, purchased from Inspiralis (Norwich, UK) was used to evaluate the selectivity of compounds for the bacterial enzymes over the homologous human topoisomerase II. […] Biotinylated oligonucleotide in wash buffer was immobilized onto the wells and the excess oligonucleotide was washed off with wash buffer. […] The reactions were stopped by adding the TF buffer (50 mM NaOAc (pH 4.7), 50 mM NaCl, and 50 mM MgCl2) to allow the triplex formation (biotin-oligonucleotide-plasmid) for additional 30 min. Afterward, the unbound plasmid was washed off using TF buffer, and the solution of Promega Diamond dye in T10 buffer (10 mM Tris-HCl (pH 8.0), 1 mM EDTA) was added. […] Screening was performed at inhibitor concentrations of 10 μM. Raw data were converted to mean ± SD percentage of residual activity of the enzyme obtained by two independent measurements.

E. coli (QA-11.3) = assay: MIC broth microdilution, E. coli QA-11.3; type: cell-based; settings: Escherichia coli, 20 h; read-out: MIC E. coli (QA-11.3)
Description: as §1

E. coli DNA gyrase = target: T2, E. coli DNA gyrase (Escherichia coli, UniProt P0AES4); assay: Gyrase Supercoiling High Throughput Plate assay, E. coli; type: biochemical; settings: for LE DNA Gyrase E. coli: LE = (1.37/HA) × pIC50
T2 construct: purchased Inspiralis (Norwich, UK)
T2 sequence (P0AES4 whole entry): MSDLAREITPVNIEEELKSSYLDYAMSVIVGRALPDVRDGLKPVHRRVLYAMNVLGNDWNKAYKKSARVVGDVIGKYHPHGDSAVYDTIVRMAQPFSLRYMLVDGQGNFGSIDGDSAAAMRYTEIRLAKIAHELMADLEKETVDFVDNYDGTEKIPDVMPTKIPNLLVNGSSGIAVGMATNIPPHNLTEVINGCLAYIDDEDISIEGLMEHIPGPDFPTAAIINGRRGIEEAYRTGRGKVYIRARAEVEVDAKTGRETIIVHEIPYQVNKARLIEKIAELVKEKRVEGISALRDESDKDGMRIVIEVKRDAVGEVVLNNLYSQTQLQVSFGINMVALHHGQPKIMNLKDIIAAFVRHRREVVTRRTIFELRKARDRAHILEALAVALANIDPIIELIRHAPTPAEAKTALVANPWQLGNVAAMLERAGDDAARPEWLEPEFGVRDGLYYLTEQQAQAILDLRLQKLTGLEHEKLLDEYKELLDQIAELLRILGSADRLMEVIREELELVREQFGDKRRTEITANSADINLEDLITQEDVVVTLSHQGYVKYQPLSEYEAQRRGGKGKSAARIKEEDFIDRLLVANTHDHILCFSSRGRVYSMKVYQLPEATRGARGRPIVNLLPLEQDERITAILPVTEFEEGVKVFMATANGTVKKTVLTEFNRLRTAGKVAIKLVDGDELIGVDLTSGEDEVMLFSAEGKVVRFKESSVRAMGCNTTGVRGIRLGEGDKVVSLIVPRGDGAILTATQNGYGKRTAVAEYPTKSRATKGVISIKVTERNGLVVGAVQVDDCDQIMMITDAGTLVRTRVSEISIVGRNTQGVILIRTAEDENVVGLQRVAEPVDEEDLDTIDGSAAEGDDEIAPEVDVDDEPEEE
Description: A Gyrase Supercoiling High Throughput Plate assay kit, purchased from Inspiralis (Norwich. UK) was used to determine IC50 values of compounds on S. aureus and E. coli. […] Biotinylated oligonucleotide in wash buffer was immobilized onto the wells, and the excess oligonucleotide was washed off with wash buffer and ultrapure water. […] The reactions were stopped by adding the TF buffer (50 mM NaOAc (pH 4.7), 50 mM NaCl, and 50 mM MgCl2) to allow the triplex formation (biotin-oligonucleotide-plasmid) for additional 30 min. Afterward, the unbound plasmid was washed off using TF buffer, and the solution of Promega Diamond dye in T10 buffer (10 mM Tris-HCl (pH 8.0), 1 mM EDTA) was added. […] IC50 value represents the mean of two to four independent measurements.

MRSA (QA-11.7) = assay: MIC broth microdilution, MRSA QA-11.7; type: cell-based, methicillin-resistant S. aureus; settings: Staphylococcus aureus, 20 h, read-out: MIC MRSA (QA-11.7)
Description: as §1

E. coli D22 = assay: MIC broth microdilution, E. coli D22; type: cell-based; settings: Escherichia coli, D22; mutation in the lpxC gene that increases membrane permeability; read-out: MIC E. coli D22
Description: as §1

[4] = S. aureus ATCC 29213, read-out: S. aureus MIC (converted)
[5] = read-out: MIC S. aureus (ATCC 29213)

SMILES | MIC (M. smegmatis) [µg/mL] | MIC (MRSA (QA-11.6)) [µg/mL] | solubility thermodynamic at 24 h [1] [µg/mL] | MIC (E. coli (QA-11.7)) [µg/mL] | MIC (S. aureus (ATCC 29213); [4]) [µM] | MIC (S. aureus (ATCC 29213); [5]) [µg/mL] | MIC (MRSA (QA-11.2)) [µg/mL] | MIC (MRSA) [µg/mL] | MIC [2] [µg/mL] | MIC [3] [µg/mL] | remaining activity at 10 µM (Human topoisomerase IIα) [%] | MIC (E. coli (QA-11.3)) [µg/mL] | IC50 (E. coli DNA gyrase) [µM] | LE DNA Gyrase E. coli (E. coli DNA gyrase) | MIC (MRSA (QA-11.7)) [µg/mL] | MIC (E. coli D22) [µg/mL] | solubility at pH 6.8 in words ([1]; pH 6.8, single-dose in 500 mL)
COc1ccc2nccc(CCN3CCC(NCc4ccc(F)cc4)CC3)c2n1 [Compound 12] | 2 (≈ 5.07 µM) | 4 (≈ 10.1 µM) | 460 (≈ 1170 µM) | 8 (≈ 20.3 µM) | 2.54 | 1 | 4 (≈ 10.1 µM) | 2 (≈ 5.07 µM) | 32 (≈ 81.1 µM) | 1 (≈ 2.53 µM) | 101 ± 11.2 | 8 (≈ 20.3 µM) | 17 ± 1.69 | 0.23 | 4 (≈ 10.1 µM) | 16 (≈ 40.6 µM) | 
COc1ccc2nccc(CCN3CCC(NCc4ccc(CO)cc4)CC3)c2n1 [Compound 16] | 32 (≈ 78.7 µM) | 4 (≈ 9.84 µM) | 3390 (≈ 8330 µM) | 32 (≈ 78.7 µM) | 9.84 | 4 | 8 (≈ 19.7 µM) | 4 (≈ 9.84 µM) | 128 (≈ 315 µM) | 32 (≈ 78.7 µM) | 97.7 ± 1.08 | 32 (≈ 78.7 µM) | 56.6 ± 3.32 | 0.19 | 4 (≈ 9.84 µM) | 16 (≈ 39.4 µM) | soluble at this pH in any conceivable single-dose
COc1ccc2nccc(CCN3CCC(NCc4ccc(C(N)=O)cc4)CC3)c2n1 [Compound 17] | 16 (≈ 38.1 µM) | 4 (≈ 9.53 µM) | 560 (≈ 1330 µM) | 128 (≈ 305 µM) | 4.77 | 2 | 8 (≈ 19.1 µM) | 4 (≈ 9.53 µM) | 128 (≈ 305 µM) | 128 (≈ 305 µM) | 97.8 ± 2.21 | 128 (≈ 305 µM) | > 100 |  | 4 (≈ 9.53 µM) | 128 (≈ 305 µM) | 
COc1ccc2nccc(CCN3CCC(NCc4ccc(OC(F)F)c(OC)c4)CC3)c2n1 [Compound 19, N-(4-(Difluoromethoxy)-3-methoxybenzyl)-1-(2-(6-methoxy-1,5-naphthyridin-4-yl)ethyl)piperidin-4-amine] | 4 (≈ 8.46 µM) | 2 (≈ 4.23 µM) | 79 (≈ 167 µM) | 2 (≈ 4.23 µM) | 2.12 | 1 | 2 (≈ 4.23 µM) | 2 (≈ 4.23 µM) | 8 (≈ 16.9 µM) | 2 (≈ 4.23 µM) | 96.4 ± 2.3 | 4 (≈ 8.46 µM) | 3.9 ± 0.06 | 0.22 | 2 (≈ 4.23 µM) | 16 (≈ 33.9 µM) | 
COc1ccc2nccc(CCN3CCC(NCc4ccc(OC(F)F)c(O)c4)CC3)c2n1 [Compound 20, 2-(Difluoromethoxy)-5-((1-(2-(6-methoxy-1,5-naphthyridin-4-yl)ethyl)piperidin-4-ylamino)methyl)phenol] | 0.5 (≈ 1.09 µM) | 1 (≈ 2.18 µM) | 103 (≈ 225 µM) | 2 (≈ 4.36 µM) | 1.09 | 0.5 | 1 (≈ 2.18 µM) | 1 (≈ 2.18 µM) | 4 (≈ 8.72 µM) | 0.015 (≈ 0.0327 µM) | 94.8 | 1 (≈ 2.18 µM) | 4.41 ± 0.16 | 0.22 | 0.5 (≈ 1.09 µM) | 2 (≈ 4.36 µM) | 
COc1ccc2nccc(CCN3CCC(NCc4ccc(C(F)(F)F)nc4)CC3)c2n1 [Compound 21, 1-(2-(6-Methoxy-1,5-naphthyridin-4-yl)ethyl)-N-((6-(trifluoromethyl)pyridin-3-yl)methyl)piperidin-4-amine] | 0.25 (≈ 0.561 µM) | 0.5 (≈ 1.12 µM) | 209 (≈ 469 µM) | 2 (≈ 4.49 µM) | 0.56 | 0.25 | 0.5 (≈ 1.12 µM) | 0.5 (≈ 1.12 µM) | 16 (≈ 35.9 µM) | 128 (≈ 287 µM) | 95.5 ± 2.39 | 8 (≈ 18 µM) | 6.91 ± 1.62 | 0.22 | 1 (≈ 2.24 µM) | 4 (≈ 8.98 µM) | 
COc1ccc(CNC2CCN(CCc3ccnc4ccc(OC)nc34)CC2)cn1 [Compound 22, 1-(2-(6-Methoxy-1,5-naphthyridin-4-yl)ethyl)-N-((6-methoxypyridin-3-yl)methyl)piperidin-4-amine] | 16 (≈ 39.3 µM) | 2 (≈ 4.91 µM) | 1460 (≈ 3580 µM) | 2 (≈ 4.91 µM) | 1.19 | 0.5 | 2 (≈ 4.91 µM) | 1 (≈ 2.45 µM) | 4 (≈ 9.82 µM) | 2 (≈ 4.91 µM) | 97 ± 6.94 | 4 (≈ 9.82 µM) | 7.24 ± 0.34 | 0.23 | 1 (≈ 2.45 µM) | 4 (≈ 9.82 µM) | 

Source: article PMC8300687, “A Fine-Tuned Lipophilicity/Hydrophilicity Ratio Governs Antibacterial Potency and Selectivity of Bifurcated Halogen Bond-Forming NBTIs” (Antibiotics, 2021)
